Assays:
[1] = molecular target: T1, SMARCA2-HiBiT (Homo sapiens, UniProt P51531); assay: SMARCA2 HiBiT degradation assay in HeLa cells; format: cell-based; conditions: 18 hours incubation; for DC50: read-out: HeLa_HiBit-SM2 DC50; for Dmax: HeLa, read-out: HeLa-HiBit-SM2 Dmax (%)
T1 construct: SMARCA2-HiBiT knock-in Hela monoclonal cell (CS302366); host or cells: HeLa monoclonal knock-in line (CRISPR HiBiT knock-in at the endogenous locus, heterozygous)
In short: (§1)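 HeLa monoclonal lines with heterozygous HiBiT knock-in were seeded at 2500 cells/well in EMEM with 10% FBS and treated with compound for 18 h at 37 °C. Remaining tagged protein was measured by Nano-Glo HiBiT lytic luminescence after 30–60 min at RT, and values came from curve fitting.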

[2] = molecular target: T2, SMARCA4-HiBiT (Homo sapiens, UniProt P51532); assay: SMARCA4 HiBiT degradation assay in HeLa cells; format: cell-based; conditions: 18 hours incubation; for DC50: read-out: HeLa-HiBit-SM4 DC50; for Dmax: HeLa, read-out: HeLa-HiBit-SM4 Dmax (%)
T2 construct: SMARCA4-HiBiT knock-in Hela monoclonal cell (CS3023226); host or cells: HeLa monoclonal knock-in line (CRISPR HiBiT knock-in at the endogenous locus, heterozygous)
T2 sequence (P51532 whole entry): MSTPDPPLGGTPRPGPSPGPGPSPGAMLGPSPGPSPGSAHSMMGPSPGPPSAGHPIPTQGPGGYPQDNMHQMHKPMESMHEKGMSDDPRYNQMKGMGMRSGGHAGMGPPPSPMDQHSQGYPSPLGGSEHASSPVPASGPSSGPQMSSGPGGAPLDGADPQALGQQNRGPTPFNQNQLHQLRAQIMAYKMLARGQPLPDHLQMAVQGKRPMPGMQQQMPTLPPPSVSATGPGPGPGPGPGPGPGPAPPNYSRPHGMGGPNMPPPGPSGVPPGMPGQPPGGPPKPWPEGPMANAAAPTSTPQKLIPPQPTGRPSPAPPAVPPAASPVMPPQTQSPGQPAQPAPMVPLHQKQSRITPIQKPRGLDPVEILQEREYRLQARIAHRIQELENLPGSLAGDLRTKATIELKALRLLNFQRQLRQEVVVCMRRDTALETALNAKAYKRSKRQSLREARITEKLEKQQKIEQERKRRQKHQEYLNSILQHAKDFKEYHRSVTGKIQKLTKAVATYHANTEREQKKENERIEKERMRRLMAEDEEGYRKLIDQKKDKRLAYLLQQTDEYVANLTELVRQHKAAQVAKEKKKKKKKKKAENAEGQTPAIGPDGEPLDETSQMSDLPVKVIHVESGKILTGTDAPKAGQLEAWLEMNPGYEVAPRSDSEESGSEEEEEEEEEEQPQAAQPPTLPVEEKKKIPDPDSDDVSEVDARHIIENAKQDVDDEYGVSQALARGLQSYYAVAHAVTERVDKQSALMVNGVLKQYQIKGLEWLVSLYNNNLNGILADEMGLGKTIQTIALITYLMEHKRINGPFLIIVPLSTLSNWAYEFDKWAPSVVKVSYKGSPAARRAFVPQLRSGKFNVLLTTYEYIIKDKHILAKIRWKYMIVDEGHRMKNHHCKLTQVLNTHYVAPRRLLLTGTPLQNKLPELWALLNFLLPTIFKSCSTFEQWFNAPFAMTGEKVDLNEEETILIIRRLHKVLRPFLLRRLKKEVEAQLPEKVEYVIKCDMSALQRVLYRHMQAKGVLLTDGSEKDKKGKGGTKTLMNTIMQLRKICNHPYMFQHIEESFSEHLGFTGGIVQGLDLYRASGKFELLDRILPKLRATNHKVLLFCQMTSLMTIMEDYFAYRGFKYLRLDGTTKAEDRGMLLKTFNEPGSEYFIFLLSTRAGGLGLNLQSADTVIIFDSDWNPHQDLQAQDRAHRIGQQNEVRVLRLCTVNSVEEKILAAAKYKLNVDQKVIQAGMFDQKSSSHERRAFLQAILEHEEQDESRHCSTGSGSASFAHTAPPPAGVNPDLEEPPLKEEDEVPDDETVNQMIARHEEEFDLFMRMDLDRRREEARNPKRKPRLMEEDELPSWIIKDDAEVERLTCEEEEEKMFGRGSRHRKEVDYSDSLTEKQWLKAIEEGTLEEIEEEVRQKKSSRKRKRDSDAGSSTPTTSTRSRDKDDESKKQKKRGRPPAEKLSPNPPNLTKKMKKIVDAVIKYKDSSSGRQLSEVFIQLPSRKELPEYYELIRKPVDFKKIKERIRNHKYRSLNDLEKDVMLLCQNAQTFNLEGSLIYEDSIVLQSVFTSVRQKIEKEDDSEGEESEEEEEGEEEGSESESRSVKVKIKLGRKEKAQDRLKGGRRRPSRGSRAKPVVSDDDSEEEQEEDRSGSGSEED
In short: as §1

T1 sequence (P51531 whole entry): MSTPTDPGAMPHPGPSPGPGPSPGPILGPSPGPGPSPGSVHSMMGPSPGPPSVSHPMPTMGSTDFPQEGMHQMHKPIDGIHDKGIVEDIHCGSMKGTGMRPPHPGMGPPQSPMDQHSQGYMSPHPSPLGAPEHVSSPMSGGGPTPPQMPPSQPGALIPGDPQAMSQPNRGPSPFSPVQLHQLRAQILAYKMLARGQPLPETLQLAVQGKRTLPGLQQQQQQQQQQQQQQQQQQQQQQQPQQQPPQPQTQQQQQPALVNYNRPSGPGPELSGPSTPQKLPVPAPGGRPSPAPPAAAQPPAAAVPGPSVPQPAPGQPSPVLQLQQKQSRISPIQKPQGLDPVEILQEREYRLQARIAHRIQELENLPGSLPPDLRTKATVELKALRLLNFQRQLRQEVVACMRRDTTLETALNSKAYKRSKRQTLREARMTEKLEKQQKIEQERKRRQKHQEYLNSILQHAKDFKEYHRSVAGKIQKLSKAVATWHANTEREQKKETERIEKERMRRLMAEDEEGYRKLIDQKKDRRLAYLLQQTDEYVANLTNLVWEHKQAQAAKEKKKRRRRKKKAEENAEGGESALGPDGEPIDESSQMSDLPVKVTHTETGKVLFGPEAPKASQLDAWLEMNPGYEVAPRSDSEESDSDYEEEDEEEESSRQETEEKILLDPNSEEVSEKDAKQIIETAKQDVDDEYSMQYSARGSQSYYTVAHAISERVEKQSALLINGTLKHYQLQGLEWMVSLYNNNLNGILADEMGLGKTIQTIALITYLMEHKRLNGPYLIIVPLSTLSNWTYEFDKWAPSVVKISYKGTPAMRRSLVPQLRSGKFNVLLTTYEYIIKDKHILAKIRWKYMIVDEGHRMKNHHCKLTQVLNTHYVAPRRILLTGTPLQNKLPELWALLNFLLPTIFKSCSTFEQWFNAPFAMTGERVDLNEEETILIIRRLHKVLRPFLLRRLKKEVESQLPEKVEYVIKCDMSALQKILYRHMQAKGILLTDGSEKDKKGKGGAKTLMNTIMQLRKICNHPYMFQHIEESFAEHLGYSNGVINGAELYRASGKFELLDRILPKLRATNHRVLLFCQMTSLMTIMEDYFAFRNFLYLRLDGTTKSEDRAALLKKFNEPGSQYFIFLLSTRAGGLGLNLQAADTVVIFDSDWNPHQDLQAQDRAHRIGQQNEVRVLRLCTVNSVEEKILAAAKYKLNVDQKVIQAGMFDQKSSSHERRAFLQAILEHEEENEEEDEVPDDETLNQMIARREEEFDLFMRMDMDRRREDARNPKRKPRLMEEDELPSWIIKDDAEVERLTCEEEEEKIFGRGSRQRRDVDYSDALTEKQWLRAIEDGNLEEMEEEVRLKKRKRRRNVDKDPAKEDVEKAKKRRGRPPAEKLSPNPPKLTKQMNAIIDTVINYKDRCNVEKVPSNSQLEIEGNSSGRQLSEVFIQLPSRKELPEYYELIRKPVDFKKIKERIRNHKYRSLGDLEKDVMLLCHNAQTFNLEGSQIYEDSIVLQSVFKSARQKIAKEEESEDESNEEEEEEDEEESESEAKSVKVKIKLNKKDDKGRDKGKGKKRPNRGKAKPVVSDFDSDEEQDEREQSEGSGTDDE

Structure (SMILES)	DC50 [1] [nM]	Dmax [1] [%]	DC50 [2] [nM]	Dmax [2] [%]	HeLa-HiBit-SM4 Dmax (%) [2]
CC1CN(CC2CCN(c3ccc4c(c3)C(=O)N(C3CCC(=O)NC3=O)C4)CC2)CCN1C(=O)N1CCN2c3cc(-c4ccccc4O)nnc3NC[C@H]2C1 (stereo partly drawn) [Example 104, 3-(6-(4-((4-((S)-2-(2-hydroxyphenyl)-6,6a,7,8,9,10-hexahydro-5H-pyrazino[1′,2′:4,5]pyrazino[2,3-c]pyridazine-8-carbonyl)-3-methylpiperazin-1-yl)methyl)piperidin-1-yl)-1-oxoisoindolin-2-yl)piperidine-2,6-dione]	< 10	> 85	< 10	75 to 85	
O=C1CCC(N2C(=O)c3cccc(N4CCC(CCCN5CCC(N6CCN7c8cc(-c9ccccc9O)nnc8NC[C@H]7C6)C(F)C5)CC4)c3C2=O)C(=O)N1 (stereo partly drawn) [Example 73, 2-(2,6-dioxopiperidin-3-yl)-4-(4-(3-(3-fluoro-4-((S)-2-(2-hydroxyphenyl)-5,6,6a,7,9,10-hexahydro-8H-pyrazino[1′,2′:4,5]pyrazino[2,3-c]pyridazin-8-yl)piperidin-1-yl)propyl)piperidin-1-yl)isoindoline-1,3-]	< 10	75 to 85	< 10	50 to 75	
O=C1CCC(N2C(=O)c3ccc(N4CC[C@@H](CN5C[C@@H]6[C@H](C5)[C@H]6CN5CCN6c7cc(-c8ccccc8O)nnc7NC[C@H]6C5)[C@H](F)C4)cc3C2=O)C(=O)N1 (stereo partly drawn) [Example 200, 2-(2,6-dioxopiperidin-3-yl)-5-[(3S,4S)-3-fluoro-4-[[(1S,5R)-6-[[(10S)-4-(2-hydroxyphenyl)-1,5,6,8,12-pentazatricyclo [8.4.0.02,7]tetradeca-2(7),3,5-trien-12-yl]methyl]-3-azabicyclo[3.1.0]hexan-3-yl]methyl]piperidin-1-yl]isoindole-1,3-dione]	< 10	75 to 85	< 10		C (C=50%<Dmax<=75%)
O=C1CCC(N2C(=O)c3ccc(N4CCN(C(=O)OCCN5CCC(N6CCN7c8cc(-c9ccccc9O)nnc8NC[C@H]7C6)CC5)CC4)cc3C2=O)C(=O)N1 (stereo partly drawn) [Example 223, 2-(4-((S)-2-(2-hydroxyphenyl)-5,6,6a,7,9,10-hexahydro-8H-pyrazino[1′,2′:4,5]pyrazino[2,3-c]pyridazin-8-yl)piperidin-1-yl)ethyl 4-(2-(2,6-dioxopiperidin-3-yl)-1,3-dioxoisoindolin-5-yl)piperazine-1-carboxylate]	< 10	75 to 85	< 10	75 to 85	

Results, then the compound that gave them:

DC50 [1] [nM]	Dmax [1] [%]	DC50 [2] [nM]	Dmax [2] [%]	HeLa-HiBit-SM4 Dmax (%) [2]	Structure (SMILES)
< 10	> 85	< 10	> 85		O=C1CCC(N2C(=O)c3ccc(N4CCC(NC5CCC(CN6CCN7c8cc(-c9ccccc9O)nnc8NC[C@H]7C6)CC5)CC4)cc3C2=O)C(=O)N1 (stereo partly drawn) [Example 163, 2-(2,6-dioxopiperidin-3-yl)-5-[4-[[4-[[(10S)-4-(2-hydroxyphenyl)-1,5,6,8,12-pentazatricyclo[8.4.0.02,7]tetradeca-2,4,6-trien-12-yl]methyl]cyclohexyl]amino]piperidin-1-yl]isoindole-1,3-dione]
< 10	> 85	< 10	> 85		O=C1CCC(N2C(=O)c3ccc(N4CCC(CN5CCC(NC(=O)N6CCN7c8cc(-c9ccccc9O)nnc8NC[C@H]7C6)CC5)CC4)cc3C2=O)C(=O)N1 (stereo partly drawn) [Example 80, (6aS)-N-(1-((1-(2-(2,6-dioxopiperidin-3-yl)-1,3-dioxoisoindolin-5-yl)piperidin-4-yl)methyl)piperidin-4-yl)-2-(2-hydroxyphenyl)-5,6,6a,7,9,10-hexahydro-8H-pyrazino[1′,2′:4,5]pyrazino[2,3-c]pyridazine-8-carboxamide]
